Data on one molecule can be found in patent publication US20120022024A1, “ANTI-BACTERIAL COMPOSITIONS AND METHODS INCLUDING TARGETING VIRULENCE FACTORS OF STAPHYLOCOCCUS AUREUS” (priority 2009, published 2012).

Read-outs that look alike come from different tables or passages of the source.

Experiment [1] deals with staphyloxanthin (STX) biosynthesis in S. aureus. The experiment can be described thus: Staphyloxanthin biosynthesis inhibition assay. The class given is cell-based, Staphylococcus aureus. Conditions: Staphylococcus aureus. How it is done: The question next arises: how potent are these compounds in inhibiting STX biosynthesis in S. aureus? We thus treated S. aureus bacteria with serially diluted compounds at 37° C. for 3 days, after which the STX pigment was extracted with methanol. Optical densities were measured at 450 nm and IC50 values for inhibition of pigment formation for each compound were calculated using a standard dose-response curve. The rank ordered IC50 values of the 38 compounds investigated are shown in Table 7 and dose-response curves of representative compounds are shown in FIG. 2.
The S. aureus strain used was the WT clinical isolate (Pig1) (4). S. aureus was cultured in THB (1 mL) in the presence of inhibitor compounds for 72 h, in duplicate. Cells were then centrifuged and washed twice with PBS. STX was extracted with MeOH and the O.D. was determined at 450 nm using a Perkin Elmer MBA 2000 (Norwalk, Conn.) spectrophotometer.

Experiment [2] addresses S. aureus CrtM (dehydrosqualene synthase) (Staphylococcus aureus, UniProt A9JQL9). The experiment in a line: CrtM enzyme inhibition assay. As to conditions: read-out: IC50 against CrtM.
The test system of experiment [3] is S. aureus. Conditions: treated mice compared to a control group; cited from earlier work.
Experiment [4] relates to S. aureus. As to conditions: non-pigmented S. aureus after treatment versus normally pigmented; cited from earlier work.
Experiment [5] has as its system S. aureus. Conditions: non-pigmented S. aureus after treatment versus normally pigmented; cited from earlier work. The source holds these as a separate data set.

Chain of S. aureus CrtM (dehydrosqualene synthase) (A9JQL9 whole entry): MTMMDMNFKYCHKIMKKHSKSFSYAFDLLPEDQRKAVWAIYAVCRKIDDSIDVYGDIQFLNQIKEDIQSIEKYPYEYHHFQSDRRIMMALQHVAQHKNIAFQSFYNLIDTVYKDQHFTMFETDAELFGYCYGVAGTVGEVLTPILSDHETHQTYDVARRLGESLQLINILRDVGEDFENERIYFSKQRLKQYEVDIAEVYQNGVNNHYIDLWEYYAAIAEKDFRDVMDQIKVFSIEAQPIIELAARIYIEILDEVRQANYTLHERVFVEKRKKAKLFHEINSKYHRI

As to `O=P([O-])([O-])C(CCCc1cccc(Oc2ccccc2)c1)S(=O)(=O)[O-].[K+].[K+].[K+]` (centres unmarked) [Compound 1, 1-Phosphono-4-(3-phenoxyphenyl)butylsulfonic acid tripotassium salt, reference compound], the IC50 in experiment [1] (72 h, read-out: Staphyloxanthin IC50) is 110 nM; in experiment [1] (read-out: IC50 (STX)) it was 110 nM; in experiment [1] (read-out: IC50(STX)), 110 nM; in experiment [1] (read-out: IC50 for STX biosynthesis), 110 nM; in experiment [2] it was 7.9 µM. Besides, the “bacterial counts in kidneys reduced / bacterial growth inhibited” value with S. aureus [3] is on record as 98%. The “survival in freshly isolated human whole blood” value in the experiment with S. aureus [4] is “less able to survive in freshly isolated human whole blood”. Besides, the “susceptibility to killing by hydrogen peroxide” value in the experiment with S. aureus [5] is recorded as “much more susceptible to killing by hydrogen peroxide”.
